For assay [1], the system named is YWHAB knockdown HCC cells. Kind of assay: MTT IC50 in YWHAB knockdown HCC cells. The note with it: 48 h, vs scramble. It counts as cell-based, human. On the procedure:
(§1) Cell viability was assessed using MTT experiments. Cells, together with KA, were seeded into 96-well plates at a density of 2000 cells per well with three replicates per condition. DMSO was used as a control. At designated time points, 20 μL of MTT (Sigma, St. Louis, MO, USA) solution was added to each well and incubated for 3 h. After removing the culture medium, 200 μL of DMSO was added to dissolve the formazan crystals. The absorbance was then measured using a microplate reader at a wavelength of 560 nm.
Short hairpin (sh) RNA targeting YWHAB was cloned into the pLKO.1-puro plasmid, with the sequences listed in Supplementary Table S1. Flag-tagged YWHAB, MYC-tagged YWHAB, and Flag-tagged Raf1 plasmids were purchased from Miaoling (Wuhan, China). Transfection was performed by introducing the specified plasmids into HEK293FT cells using Lipofectamine 2000 (Thermo, New York, NY, USA), following the manufacturer’s instructions. Viral supernatant or cells were collected two days post-transfection. For infection, HCC cells were treated with viral supernatant and polybrene (Sigma, Virginia Beach, VA, USA). After two rounds of infection, the cells were stably selected by using puromycin (Sigma, Virginia Beach, VA, USA).

Another assay relates to SMMC 7721 cells. Kind of assay: MTT IC50 determination in SMMC 7721. The conditions noted are these: Homo sapiens, gradient concentrations, 48 h. It counts as cell-based. The method, then:
as §1

Assay [2] deals with HCC cells (MHCC97 H and SMMC 7721). Kind of assay: MTT cell proliferation assay. It counts as cell-based, human. The conditions noted are these: 1–7 days. On the procedure:
as §1

Another assay deals with CDK and cyclin proteins. Kind of assay: Western blot of CDK and cyclin proteins. It counts as cell-based, human. The note with it: 48 h, MHCC97 H and SMMC 7721. The method, then: (§2) Cells were harvested using a cell scrape and washed three times with PBS buffer, then lysed on ice in RIPA lysis buffer (Beyotime, Shanghai, China). Protein concentration was determined using a BCA protein assay kit (Beyotime, Shanghai, China). Subsequently, 60 µg of protein was mixed with 5× loading buffer and heated in a 100 °C water bath for 15 min. The samples were subjected to SDS-PAGE electrophoresis, followed by transfer onto a PVDF membrane (Millipore, Darmstadt, Germany). The membrane was blocked with 5% BSA for 2 h at room temperature and incubated sequentially with primary and HRP-conjugated secondary antibodies. Finally, signal detection was performed using an ECL detection system (Clinx, Shanghai, China).

Assay [3] concerns nuclear translocation of ERK. The assay can be described thus: ERK nuclear translocation (nuclear/cytoplasmic extraction, immunofluorescence). It counts as cell-based, human. The note with it: 10 μM, 48 h, confocal microscopy.
Protocol: After treating HCC cells with KA or DMSO, the cells were collected by cell scraping. Adding an appropriate amount of PMSF and reagent A (Nuclear and Cytoplasmic Protein Extraction Kit, Beyotime, Shanghai, China). Vortexed and then ice bathed for 15 min. Adding the reagent B provided in the kit mentioned before. Then vortexed and ice bathed for 1 min. Vortexed again. Centrifuged at 14,000× g for 5 min. The supernatant was cytoplasmic protein. Adding a certain amount of nuclear protein extraction reagent to the precipitate. Multiple vortices within 30 min. Centrifuged at 14,000× g for 10 min. The obtained supernatant was the nuclear protein.
The target of a further assay is T1, YWHAB dimer (Homo sapiens, UniProt P31946).
T1 sequence (P31946 1-246): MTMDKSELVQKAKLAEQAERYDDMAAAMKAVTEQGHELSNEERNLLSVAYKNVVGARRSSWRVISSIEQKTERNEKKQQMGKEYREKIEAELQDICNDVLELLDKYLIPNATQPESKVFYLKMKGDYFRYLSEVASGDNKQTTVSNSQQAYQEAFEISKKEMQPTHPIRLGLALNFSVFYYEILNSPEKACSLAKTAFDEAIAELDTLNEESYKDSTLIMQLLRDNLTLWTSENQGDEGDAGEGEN
The assay can be described thus: Blue-Native PAGE of YWHAB dimer. Also noted: endogenous in cells; host or cells: MHCC97 H and SMMC 7721. It counts as cell-based. The note with it: HCC cell lines and FLAG-YWHAB overexpressed HEK 293T cells. On the procedure:
Blue/Clear Native PAGE (Real Times, Beijing, China) is an electrophoretic technique used to separate protein complexes from biological samples. Instead of SDS, Coomassie Brilliant Blue G-250 binds to the protein, imparting a negative charge, allowing separation in the PAGE gel based on the molecular weight of the proteins. HCC cells treated with KA or DMSO for 48 h were collected using a cell scraper and lysed on ice in IP cell lysis buffer for one hour. A suitable amount of 4× BN/CN-PAGE protein loading buffer and 5% G-250 stain (for loading) was added to the supernatant of the protein sample, followed by BN-PAGE electrophoresis in the Native PAGE gel. After electrophoresis and membrane transfer, the PVDF membrane (Millipore, Darmstadt, Germany) was blocked with 5% BSA for two hours at room temperature. HPR-linked primary and secondary antibodies were incubated for detection, and protein bands were visualized using the ECL detection system (Clinx, Shanghai, China)

Assay [4] relates to N-cadherin and E-cadherin. Kind of assay: Western blot of EMT markers. It counts as cell-based, human. The conditions noted are these: 48 h. The method, then:
as §2

Assay [5] concerns MHCC97H and SMMC 7721 cells. Kind of assay: CCK8 cell viability screen of mulberry active substances. It counts as cell-based, human. The conditions noted are these: 10 μM, 48 h. On the procedure:
The CCK8 assay is used to investigate the effect of compounds on cell viability by measuring the amount of formazan dye. Firstly, 8000 cells were inoculated into each well of the 96-well plate with three replicates per condition. At the same time, add the corresponding mulberry active substances. After 48 h of incubation, 20 μL of the Cell Counting Kit-8 (CCK8) reagent (Beyotime, Shanghai, China) was added to each well. After being cultured under 37 °C and 5% carbon dioxide for 2–3 h, the absorbance was measured at 450 nm.

Assay [6] deals with MHCC97 H cells labeled with luciferase. The assay can be described thus: In vivo imaging of pulmonary metastasis after tail vein injection. More on the design: species or system BALB/c-nu mice. The conditions noted are these: 30 mg/kg intraperitoneal, once every two days, 32 days. An excerpt: Thirty-six female BALB/c-nu mice, four weeks old (supplied by Slike Jingda Laboratory Animal Co., Ltd., Changsha, China; Animal qualification number: SCXK-2019-0004), were housed in an SPF room. […] Therefore, female mice were selected for this study; 12 mice were used to establish the hepatocellular carcinoma xenografts. MHCC97 H cells (1 × 10^5 cells) were slowly injected into the left lobe of the mouse liver after being anesthetized with isoflurane. Three days later, the mice received intraperitoneal injections of KA (30 mg/kg) every two days for 45 days. Control mice were administered DMSO injections. Recorded the survival status of the animals. Prior to liver collection, the mice were anesthetized with isoflurane to minimize pain and euthanized by cervical dislocation. Ethics approval serial number: IACUC-20240613-03. Animal experiments were conducted in accordance with the Guide for the Care and Use of Laboratory Animals (Ministry of Science and Technology of China, 2006).
MHCC97 H cells labeled with luciferase (1 × 10^5 cells) were injected into the 4- to 5-week-old female BALB/c-nu mice (SPF grade, average weight 16–18 g) through intravenous injection. Following the injection, luciferase substrate was delivered to the mice via intraperitoneal injection. After a 5-min period of anesthesia with isoflurane, the mice were imaged using an in vivo small animal imaging system. […]

The mark [7] stands for this setting: YWHAB-overexpressing HCC cells, KA 15 μM.

Results on 1 compound are retold here after article PMC12523843, “Kuwanon A Targeted YWHAB in Hepatocellular Carcinoma Cells to Inhibit the Raf/MEK/ERK Signaling Pathway” (Cells, 2025).

Take `CC(C)=CCc1c(-c2ccc(O)c3c2OC(C)(C)C=C3)oc2cc(O)cc(O)c2c1=O` [KA, Kuwanon A]: in assay [1], the “IC50 of KA after knockdown of YWHAB” value is on record as “significant increase in the IC50”. The IC50 (as a rule, the concentration that inhibits the measured activity by half) in the assay with SMMC 7721 cells is 9.85 µM. Besides, the “HCC cell proliferation (continuous MTT)” value in assay [2] (10 μM and 15 μM, vs DMSO) is listed as “significantly inhibited HCC cell proliferation in a dose-dependent manner”. Besides, the “proliferation inhibition by KA under YWHAB overexpression (MTT)” value in [2] (setting [7]) is on record as “partly reversed the proliferation inhibition”. The “cell cycle-related proteins (Western blot)” value in the assay on CDK and cyclin proteins is given as “downregulation of corresponding cell cycle-related proteins”. The “nuclear translocation of ERK” value in assay [3] was “inhibited the nuclear translocation of ERK”. Moreover, at YWHAB dimer, the “proportion of YWHAB dimer (Native-PAGE)” value is listed as “proportion of YWHAB dimer had decreased”. In addition, in assay [4] (MHCC97 H and SMMC 7721), the “E-cadherin level (Western blot)” value was “upregulation of E-cadherin” and the “N-cadherin level (Western blot)” value was “downregulation of N-cadherin”. For the same compound, the “N-cadherin/E-cadherin ratio under YWHAB overexpression” value in [4] (setting [7]) is given as “minimal changes”. Besides, the “viability of HCC cells (CCK8)” value in assay [5] is “significantly inhibited the viability of HCC cells”. In assay [6], the “pulmonary metastasis (in vivo imaging)” value is listed as “significantly inhibited the pulmonary metastasis”.
